The values below come from the kinase profiling compilation of Christmann-Franck et al. (2016).

What all share (test): KINOMEscan competition binding
The target in one assay is CLK1 (human) (UniProt P49759). Conditions: compound 10.0 µM.
A further assay addresses MAP2K4 (human) (UniProt P45985). The following applies: compound 10.0 µM.
Assay [1] relates to KIT (human), P10721 [D816V]. The following applies: compound 10.0 µM.
The test system of assay [2] is EGFR (human), P00533 [G719S]. Conditions: compound 10.0 µM.
Another assay addresses CSNK1E (human) (UniProt P49674). The following applies: compound 10.0 µM.
For assay [3], the system named is FLT3 (human), P36888 [K663Q]. The following applies: compound 10.0 µM.
Assay [4] has as its system FLT3 (human), P36888 [D835H]. Conditions: compound 10.0 µM.
The next assay has as its target CDK16 (human) (UniProt Q00536). The following applies: compound 10.0 µM.
A further assay concerns the target PIP4K2B (human) (UniProt P78356). Conditions: compound 10.0 µM.
The next assay has as its target MYLK4 (human) (UniProt Q86YV6). The following applies: for kinase still bound, per cent of control: compound 10.0 µM.
The next assay addresses PIK3CG (human) (UniProt P48736). The following applies: compound 10.0 µM.
A further assay deals with RIOK1 (human) (UniProt Q9BRS2). Conditions: compound 10.0 µM.
The next assay concerns the target HIPK1 (human) (UniProt Q86Z02). Conditions: compound 10.0 µM.
In a further assay the target is CAMKK1 (human) (UniProt Q8N5S9). Conditions: compound 10.0 µM.
In a further assay the target is RPS6KA2 KD2 (human) (UniProt Q15349). The following applies: compound 10.0 µM.
RPS6KA2 KD2 (human), sequence (Q15349 whole entry, looked up): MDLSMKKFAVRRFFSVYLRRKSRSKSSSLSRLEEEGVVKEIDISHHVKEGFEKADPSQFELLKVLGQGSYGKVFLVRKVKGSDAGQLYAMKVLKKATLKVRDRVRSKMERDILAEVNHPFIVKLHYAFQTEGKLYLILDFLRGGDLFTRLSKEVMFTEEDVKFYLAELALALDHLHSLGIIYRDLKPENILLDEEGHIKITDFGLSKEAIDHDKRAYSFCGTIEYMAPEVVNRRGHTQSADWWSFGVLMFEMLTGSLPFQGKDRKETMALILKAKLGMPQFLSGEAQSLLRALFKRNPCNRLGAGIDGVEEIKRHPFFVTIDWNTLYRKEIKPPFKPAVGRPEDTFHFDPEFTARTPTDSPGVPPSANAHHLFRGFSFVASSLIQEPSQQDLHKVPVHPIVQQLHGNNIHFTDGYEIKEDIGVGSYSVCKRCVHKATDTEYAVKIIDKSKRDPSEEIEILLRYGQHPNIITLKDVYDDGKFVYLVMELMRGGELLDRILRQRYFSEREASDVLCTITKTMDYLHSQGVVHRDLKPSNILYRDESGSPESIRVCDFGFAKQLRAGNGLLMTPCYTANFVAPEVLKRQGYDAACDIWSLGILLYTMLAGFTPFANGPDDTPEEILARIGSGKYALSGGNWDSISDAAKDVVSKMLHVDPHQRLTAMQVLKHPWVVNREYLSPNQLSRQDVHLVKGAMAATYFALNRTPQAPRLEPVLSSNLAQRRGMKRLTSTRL
The target of the next assay is CHUK (human) (UniProt O15111). Conditions: compound 10.0 µM.
The next assay addresses PIP5K1A (human) (UniProt Q99755). The following applies: compound 10.0 µM.
For assay [5], the system named is FLT3 (human), P36888 [N841I]. The following applies: compound 10.0 µM.
A further assay concerns the target STK17B (human) (UniProt O94768). The following applies: compound 10.0 µM.
For assay [6], the target named is JAK3 JH1 catalytic (human) (UniProt P52333). The following applies: compound 10.0 µM.
In another assay the target is STK17A (human) (UniProt Q9UEE5). The following applies: compound 10.0 µM.
Assay [7] has as its system FLT3 (human), P36888 [ITD]. Conditions: compound 10.0 µM.
The target of another assay is DAPK2 (human) (UniProt Q9UIK4). The following applies: compound 10.0 µM.
The target of a further assay is DAPK3 (human) (UniProt O43293). Conditions: compound 10.0 µM.
DAPK3 (human), sequence (O43293 whole entry, looked up): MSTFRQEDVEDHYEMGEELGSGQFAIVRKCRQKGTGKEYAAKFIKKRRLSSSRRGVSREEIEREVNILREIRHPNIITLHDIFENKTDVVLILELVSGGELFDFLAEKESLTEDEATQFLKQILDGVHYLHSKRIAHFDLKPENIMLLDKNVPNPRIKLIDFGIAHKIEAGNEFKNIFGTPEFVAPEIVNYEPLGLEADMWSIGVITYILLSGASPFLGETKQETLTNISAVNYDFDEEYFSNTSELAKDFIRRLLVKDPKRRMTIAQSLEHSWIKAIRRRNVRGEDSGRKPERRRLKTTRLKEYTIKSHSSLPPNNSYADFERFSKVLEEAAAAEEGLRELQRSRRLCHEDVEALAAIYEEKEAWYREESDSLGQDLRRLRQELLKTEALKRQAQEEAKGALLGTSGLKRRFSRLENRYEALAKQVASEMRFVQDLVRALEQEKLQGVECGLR
The next assay deals with RPS6KA1 KD2 (human) (UniProt Q15418). The following applies: compound 10.0 µM.
RPS6KA1 KD2 (human), sequence (Q15418 whole entry, looked up): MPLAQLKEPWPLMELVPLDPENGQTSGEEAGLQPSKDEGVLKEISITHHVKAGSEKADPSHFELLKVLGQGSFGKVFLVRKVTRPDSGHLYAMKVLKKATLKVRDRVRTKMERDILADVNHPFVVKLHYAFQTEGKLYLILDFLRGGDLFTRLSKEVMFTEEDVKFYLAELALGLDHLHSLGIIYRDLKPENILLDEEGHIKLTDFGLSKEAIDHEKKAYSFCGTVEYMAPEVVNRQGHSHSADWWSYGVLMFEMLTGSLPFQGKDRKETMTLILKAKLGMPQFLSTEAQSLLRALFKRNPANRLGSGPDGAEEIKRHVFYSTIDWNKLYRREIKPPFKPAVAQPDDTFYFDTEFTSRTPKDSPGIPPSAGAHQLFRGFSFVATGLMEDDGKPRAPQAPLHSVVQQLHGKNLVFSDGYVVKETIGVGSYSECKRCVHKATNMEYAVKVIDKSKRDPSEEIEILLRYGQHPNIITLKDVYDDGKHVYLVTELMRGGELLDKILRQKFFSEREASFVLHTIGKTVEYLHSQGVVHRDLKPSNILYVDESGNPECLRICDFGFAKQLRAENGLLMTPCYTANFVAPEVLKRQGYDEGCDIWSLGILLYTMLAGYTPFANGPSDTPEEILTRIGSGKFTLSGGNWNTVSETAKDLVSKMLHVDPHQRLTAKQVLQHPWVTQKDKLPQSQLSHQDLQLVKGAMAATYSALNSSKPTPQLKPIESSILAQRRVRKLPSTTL
In assay [8] the target is TYK2 JH2 pseudokinase (human) (UniProt P29597). Conditions: compound 10.0 µM.
Assay [9] addresses JAK1 JH2 pseudokinase (human) (UniProt P23458). The following applies: compound 10.0 µM.
The next assay deals with PDGFRB (human) (UniProt P09619). The following applies: compound 10.0 µM.
The target in a further assay is MAP4K4 (human) (UniProt O95819). Conditions: compound 10.0 µM.
The test system of assay [10] is KIT (human), P10721 [V559D/T670I]. The following applies: compound 10.0 µM.
Another assay deals with MYLK (human) (UniProt Q15746). Conditions: compound 10.0 µM.
A further assay deals with CLK3 (human) (UniProt P49761). The following applies: compound 10.0 µM.
CLK3 (human), sequence (P49761 whole entry, looked up): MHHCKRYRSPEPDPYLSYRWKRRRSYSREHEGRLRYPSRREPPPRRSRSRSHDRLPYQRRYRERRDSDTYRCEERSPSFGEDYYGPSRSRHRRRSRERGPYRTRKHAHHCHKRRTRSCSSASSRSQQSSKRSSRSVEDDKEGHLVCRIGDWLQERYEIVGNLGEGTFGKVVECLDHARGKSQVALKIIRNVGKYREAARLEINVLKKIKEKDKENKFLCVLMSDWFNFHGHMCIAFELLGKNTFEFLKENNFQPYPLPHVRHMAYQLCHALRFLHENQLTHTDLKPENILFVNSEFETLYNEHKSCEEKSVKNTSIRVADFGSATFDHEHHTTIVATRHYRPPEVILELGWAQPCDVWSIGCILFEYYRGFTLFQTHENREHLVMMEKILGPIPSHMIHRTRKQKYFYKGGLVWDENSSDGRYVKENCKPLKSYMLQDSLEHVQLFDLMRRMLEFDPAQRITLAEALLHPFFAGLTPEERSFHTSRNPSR
The target in another assay is TAOK1 (human) (UniProt Q7L7X3). Conditions: compound 10.0 µM.
TAOK1 (human), sequence (Q7L7X3 whole entry, looked up): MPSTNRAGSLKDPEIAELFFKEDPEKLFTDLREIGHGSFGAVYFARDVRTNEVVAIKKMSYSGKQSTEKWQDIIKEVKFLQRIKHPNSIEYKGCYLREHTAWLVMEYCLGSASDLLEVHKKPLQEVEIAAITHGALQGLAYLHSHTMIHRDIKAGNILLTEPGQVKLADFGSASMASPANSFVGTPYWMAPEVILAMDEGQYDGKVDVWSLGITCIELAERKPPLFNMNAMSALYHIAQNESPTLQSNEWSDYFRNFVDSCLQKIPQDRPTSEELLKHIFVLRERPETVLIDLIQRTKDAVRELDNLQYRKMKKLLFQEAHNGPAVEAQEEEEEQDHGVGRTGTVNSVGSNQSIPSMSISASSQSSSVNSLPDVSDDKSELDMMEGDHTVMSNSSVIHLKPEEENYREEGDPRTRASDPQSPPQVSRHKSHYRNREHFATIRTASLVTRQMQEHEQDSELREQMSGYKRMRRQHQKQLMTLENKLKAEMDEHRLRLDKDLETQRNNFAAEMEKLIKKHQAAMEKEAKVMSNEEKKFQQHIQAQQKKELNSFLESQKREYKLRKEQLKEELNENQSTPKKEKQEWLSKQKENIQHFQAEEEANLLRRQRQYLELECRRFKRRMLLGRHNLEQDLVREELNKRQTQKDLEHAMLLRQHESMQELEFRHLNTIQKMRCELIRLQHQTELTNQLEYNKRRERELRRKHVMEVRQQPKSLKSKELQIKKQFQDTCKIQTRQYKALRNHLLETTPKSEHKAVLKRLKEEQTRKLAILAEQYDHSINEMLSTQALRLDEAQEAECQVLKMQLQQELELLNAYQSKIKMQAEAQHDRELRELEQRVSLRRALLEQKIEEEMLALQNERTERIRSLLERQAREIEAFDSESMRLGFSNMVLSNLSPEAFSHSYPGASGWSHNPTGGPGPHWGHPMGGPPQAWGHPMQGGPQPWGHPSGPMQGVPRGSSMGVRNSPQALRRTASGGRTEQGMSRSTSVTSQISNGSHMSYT
Another assay concerns the target RIPK4 (human) (UniProt P57078). Conditions: compound 10.0 µM.
In a further assay the target is STK33 (human) (UniProt Q9BYT3). Conditions: compound 10.0 µM.
The target of another assay is PRKD1 (human) (UniProt Q15139). The following applies: compound 10.0 µM.
In another assay the target is PRKD3 (human) (UniProt O94806). The following applies: compound 10.0 µM.
The target in another assay is RPS6KA5 KD2 (human) (UniProt O75582). The following applies: compound 10.0 µM.
The next assay addresses DMPK (human) (UniProt Q09013). Conditions: compound 10.0 µM.

Each structure is given as a SMILES string.

MYLK4 (human), sequence (Q86YV6 whole entry, looked up): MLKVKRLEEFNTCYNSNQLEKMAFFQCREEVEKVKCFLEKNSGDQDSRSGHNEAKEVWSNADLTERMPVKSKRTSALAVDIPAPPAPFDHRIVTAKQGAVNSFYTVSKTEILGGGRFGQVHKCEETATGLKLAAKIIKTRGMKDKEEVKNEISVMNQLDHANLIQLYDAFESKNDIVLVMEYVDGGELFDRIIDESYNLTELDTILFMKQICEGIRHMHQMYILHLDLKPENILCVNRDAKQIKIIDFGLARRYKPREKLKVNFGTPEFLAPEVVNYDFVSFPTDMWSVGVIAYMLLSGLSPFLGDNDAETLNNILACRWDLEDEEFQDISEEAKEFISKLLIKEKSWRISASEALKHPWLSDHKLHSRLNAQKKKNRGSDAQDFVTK
HIPK1 (human), sequence (Q86Z02 whole entry, looked up): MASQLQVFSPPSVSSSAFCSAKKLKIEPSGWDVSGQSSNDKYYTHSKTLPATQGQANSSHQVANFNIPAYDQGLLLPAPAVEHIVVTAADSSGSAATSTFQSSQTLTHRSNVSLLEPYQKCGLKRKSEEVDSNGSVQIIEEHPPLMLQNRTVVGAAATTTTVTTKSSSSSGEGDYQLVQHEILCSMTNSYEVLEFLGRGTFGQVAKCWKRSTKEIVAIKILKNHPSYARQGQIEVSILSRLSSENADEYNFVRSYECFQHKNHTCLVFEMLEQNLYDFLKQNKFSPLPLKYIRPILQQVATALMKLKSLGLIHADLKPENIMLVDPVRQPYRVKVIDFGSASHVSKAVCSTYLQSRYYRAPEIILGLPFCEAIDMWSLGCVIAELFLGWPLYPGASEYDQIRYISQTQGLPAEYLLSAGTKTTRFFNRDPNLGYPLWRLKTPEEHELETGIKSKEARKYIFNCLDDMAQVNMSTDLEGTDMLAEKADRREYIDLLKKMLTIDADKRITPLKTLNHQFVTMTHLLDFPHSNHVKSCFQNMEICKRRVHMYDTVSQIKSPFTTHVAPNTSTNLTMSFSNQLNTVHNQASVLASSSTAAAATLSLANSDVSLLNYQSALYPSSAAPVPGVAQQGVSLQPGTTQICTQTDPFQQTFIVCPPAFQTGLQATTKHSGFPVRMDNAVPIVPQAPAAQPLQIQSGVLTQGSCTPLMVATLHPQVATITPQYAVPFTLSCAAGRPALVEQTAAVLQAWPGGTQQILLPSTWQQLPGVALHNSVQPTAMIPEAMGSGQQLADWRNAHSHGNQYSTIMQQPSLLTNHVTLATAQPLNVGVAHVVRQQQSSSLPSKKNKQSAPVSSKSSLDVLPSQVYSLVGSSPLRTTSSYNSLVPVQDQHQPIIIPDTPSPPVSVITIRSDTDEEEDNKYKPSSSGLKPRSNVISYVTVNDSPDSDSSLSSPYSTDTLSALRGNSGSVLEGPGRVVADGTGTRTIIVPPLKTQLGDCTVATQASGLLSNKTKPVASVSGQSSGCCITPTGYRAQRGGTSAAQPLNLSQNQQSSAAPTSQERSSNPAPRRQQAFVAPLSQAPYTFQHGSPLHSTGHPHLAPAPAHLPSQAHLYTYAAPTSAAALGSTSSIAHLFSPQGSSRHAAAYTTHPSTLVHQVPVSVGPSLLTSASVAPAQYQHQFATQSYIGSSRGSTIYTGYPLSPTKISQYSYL

In the case of `O=C1NC(=S)S/C1=C\c1ccc(-c2cncc3ccccc23)o1`, the kinase still bound, per cent of control was found to be 5.6% on CLK1 (human); 20% at MAP2K4 (human); 9.6% in [1]; 27% in assay [2]; 7% at CSNK1E (human); 14% in assay [3]. Further, the kinase still bound, per cent of control in assay [4] was 7.4%; on CDK16 (human) it was 5.2%; at PIP4K2B (human), 5.5%; at MYLK4 (human), 0.25%; on PIK3CG (human) it was 16%; at RIOK1 (human) it was 3.7%. Besides, the kinase still bound, per cent of control worked out at 3.4% at HIPK1 (human); 5.6% on CAMKK1 (human); 6.2% at RPS6KA2 KD2 (human); 8.4% on CHUK (human); 17% at PIP5K1A (human); 4% in assay [5]. Besides, the kinase still bound, per cent of control on STK17B (human) worked out at 0.25%; in assay [6], 21%; on STK17A (human), 0%; in [7], 6.2%; on DAPK2 (human), 9.3%; at DAPK3 (human), 7.4%. The kinase still bound, per cent of control on RPS6KA1 KD2 (human) worked out at 2.6%; in assay [8], 5%; in assay [9], 8.5%; at PDGFRB (human), 18%; on MAP4K4 (human) it was 25%.

The term Kd denotes the constant that tells how readily two partners part at equilibrium. A higher Kd goes with a looser complex. With `N=C1NC(=O)/C(=C/c2ccc(-c3cncc4ccccc34)o2)S1`, the kinase still bound, per cent of control on CLK1 (human) was 2%; in [1] it was 3.8%; in assay [10] it was 14%; in assay [2], 26%; at MYLK (human), 19%; on CSNK1E (human), 1.4%. Further, the kinase still bound, per cent of control on CLK3 (human) stood at 18%; on TAOK1 (human) it was 10%; in assay [3] it was 8.1%; in assay [4] it was 3.3%; at CDK16 (human), 9.8%; at PIP4K2B (human), 2.6%. The kinase still bound, per cent of control at MYLK4 (human) is 0.05%; at RIPK4 (human), 4.7%; on RIOK1 (human) it was 1.4%; at CAMKK1 (human), 3.4%; on STK33 (human), 12%; at RPS6KA2 KD2 (human) it was 13%. Further, the kinase still bound, per cent of control on CHUK (human) worked out at 1.4%; at PIP5K1A (human) it was 3.3%; in [5], 0.95%; at STK17B (human) it was 0.2%; on STK17A (human), 0.05%; in [7] it was 1.2%. Also, the kinase still bound, per cent of control on DAPK2 (human) came to 7.4%; on DAPK3 (human) it was 6.2%; on RPS6KA1 KD2 (human), 11%; on PRKD1 (human) it was 16%; in assay [9] it was 13%; at PDGFRB (human), 5.4%. The same compound returned a kinase still bound, per cent of control at PRKD3 (human) of 26%. Also, the Kd on MYLK4 (human) worked out at 55 nM.

Turning to `CSC1=NC(=O)/C(=C/c2c[nH]c(=O)c(-c3ccc(NS(C)(=O)=O)cc3)c2)S1`, the kinase still bound, per cent of control came out at 18% on CLK1 (human); 10% on MAP2K4 (human); 34% at MYLK (human); 14% on CLK3 (human); 18% on PIP4K2B (human); 8.4% at RIPK4 (human). For the same compound, the kinase still bound, per cent of control on PIK3CG (human) is 13%; on RIOK1 (human), 7.1%; on HIPK1 (human) it was 2.2%; on CAMKK1 (human), 25%; at RPS6KA2 KD2 (human), 16%; at CHUK (human), 19%. For the same compound, the kinase still bound, per cent of control at PIP5K1A (human) amounted to 29%; at STK17B (human) it was 5%; on RPS6KA5 KD2 (human), 11%; on STK17A (human), 5%; at DAPK2 (human) it was 3.6%; at DAPK3 (human), 6.2%. The kinase still bound, per cent of control on RPS6KA1 KD2 (human) is 32%.

Turning to `N=C1NC(=O)/C(=C/c2ccc(-c3csc4ccccc34)o2)S1`, the kinase still bound, per cent of control on CLK1 (human) worked out at 20%; on CSNK1E (human), 22%; at TAOK1 (human), 18%; on PIP4K2B (human) it was 26%; at MYLK4 (human) it was 32%; at HIPK1 (human), 0.6%. Also, the kinase still bound, per cent of control at RPS6KA2 KD2 (human) turned out to be 21%; at PIP5K1A (human), 30%; on STK17B (human), 0.4%; on STK17A (human), 0.05%; at DAPK2 (human) it was 14%; at DAPK3 (human), 29%. Besides, the kinase still bound, per cent of control amounted to 14% on RPS6KA1 KD2 (human), 8.5% in assay [8] and 19% in assay [9].

In the case of `N=C1NC(=O)/C(=C/c2c[nH]c(=O)c(-c3ccc(N4CCNCC4)nc3)c2)S1`, the kinase still bound, per cent of control turned out to be 3.5% on CLK1 (human); 29% at CLK3 (human); 32% on TAOK1 (human); 33% in assay [3]; 8.4% on PIP4K2B (human); 33% at PIK3CG (human). Further, the kinase still bound, per cent of control on RIOK1 (human) stood at 10%; on HIPK1 (human), 0.15%; on STK33 (human), 7.2%; on RPS6KA2 KD2 (human), 33%; on PIP5K1A (human), 14%; at STK17B (human), 1.7%. Also, the kinase still bound, per cent of control at RPS6KA5 KD2 (human) was 11%; on DMPK (human), 18%; at STK17A (human) it was 0.35%; at DAPK2 (human) it was 2.3%; at DAPK3 (human), 4.7%; at PRKD1 (human), 7%. The compound also gave a kinase still bound, per cent of control on MAP4K4 (human) of 9%.
